Assay results as given in patent publication US9708314B2, “Heterocyclic amide compound” (NISSAN CHEMICAL INDUSTRIES, LTD., priority 2013, dated 2017).

Tests used:
Type in all cases: in vivo
[1] = test system: directly sowed Oryza sativa; assay: Test Example 3: effect on crop by application to foliage (Wagner pot, water depth 0.1-0.5 cm); conditions: Nineteenth Table; application to foliage; application herbicide amount 320 g/ha
Outline: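 Alluvial soil in 1/10000 are Wagner pots, sown and grown 14 days in a 25–30 °C greenhouse. An emulsifiable concentrate diluted in water to the set dose (g/ha) was sprayed on stems and leaves. Effect scored three weeks later on a 0–5 scale: 5 = ≥90% herbicidal ratio, 0 = ≤5%.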

[2] = test system: Abutilon theophrasti; assay: Test Example 4: herbicidal effect by application to foliage (diluvial soil, plastic box); conditions: application to foliage, 320 g/ha
Outline: (§1)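 Plants were grown in sterilized diluvial soil in a greenhouse at 25-30° C for 14 days, then sprayed on stems and leaves with water-diluted emulsion formulation at set rates in g/ha. Weed control and crop injury were scored 3 weeks after treatment on a 0-5 herbicidal-ratio scale, from 0 (≤5%) to 5 (≥90%).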

[3] = test system: Alopecurus myosuroides; assay: as above; conditions: application to foliage, 320 g/ha
Outline: as §1

[4] = test system: Amaranthus retroflexus; assay: as above; conditions: application to foliage, 320 g/ha
Outline: as §1

[5] = test system: Apera spica-venti.; assay: as above; conditions: application to foliage, 320 g/ha
Outline: as §1

[6] = test system: Avena fatua; assay: as above; conditions: application to foliage, 320 g/ha
Outline: as §1

[7] = test system: Chenopodium album; assay: as above; conditions: application to foliage, 320 g/ha
Outline: as §1

[8] = test system: Digitaria ciliaris; assay: as above; conditions: application to foliage, 320 g/ha
Outline: as §1

[9] = test system: Echinochloa crus-galli var. crus-galli; assay: as above; conditions: application to foliage, 320 g/ha
Outline: as §1

[10] = test system: Galium spurium; assay: as above; conditions: application to foliage, 320 g/ha
Outline: as §1

[11] = test system: Lolium multiflorum Lam.; assay: as above; conditions: application to foliage, 320 g/ha
Outline: as §1

[12] = test system: Setaria viridis; assay: as above; conditions: application to foliage, 320 g/ha
Outline: as §1

[13] = test system: Stellaria media; assay: as above; conditions: application to foliage, 320 g/ha
Outline: as §1

[14] = test system: Veronica persica; assay: as above; conditions: application to foliage, 320 g/ha
Outline: as §1

[15] = test system: Beta vulgaris ssp. vulgaris; assay: Test Example 4: effect on crop by application to foliage (diluvial soil, plastic box); conditions: application to foliage, 320 g/ha
Outline: as §1

[16] = test system: Brassica campestris L.; assay: as above; conditions: application to foliage, 320 g/ha
Outline: as §1

[17] = test system: Glycine max; assay: as above; conditions: application to foliage, 320 g/ha
Outline: as §1

[18] = test system: Triticum aestivum; assay: as above; conditions: application to foliage, 320 g/ha
Outline: as §1

[19] = test system: directly sowed Oryza sativa; assay: as above; conditions: application to foliage, 320 g/ha
Outline: as §1

Row | Compound | b (effect on crop grade) [1] | herbicidal effect, M (Abutilon theophrasti) [2] | herbicidal effect, J (Alopecurus myosuroides) [3] | herbicidal effect, N (Amaranthus retroflexus) [4] | herbicidal effect, L (Apera spica-venti.) [5] | herbicidal effect, I (Avena fatua) [6] | herbicidal effect, O (Chenopodium album) [7] | herbicidal effect, F (Digitaria ciliaris) [8] | herbicidal effect, H (Echinochloa crus-galli var. crus-galli) [9] | herbicidal effect, Q (Galium spurium) [10] | herbicidal effect, K (Lolium multiflorum Lam.) [11] | herbicidal effect, G (Setaria viridis) [12] | herbicidal effect, P (Stellaria media) [13] | herbicidal effect, R (Veronica persica) [14] | effect on crop, f (Beta vulgaris ssp. vulgaris) [15] | effect on crop, g (Brassica campestris L.) [16] | effect on crop, c (Glycine max) [17] | effect on crop, e (Triticum aestivum) [18] | effect on crop, d (directly sowed Oryza sativa) [19]
1 | CCN(CC)c1nnc2c(C(=O)Nc3nnnn3C)ccc(C(F)(F)F)n12 [2-089] | 2 (Herbicidal ratio of 20% or more and less than 40%) | 4 (Herbicidal ratio of 70% or more and less than 90%) | 2 (Herbicidal ratio of 20% or more and less than 40%) | 4 (Herbicidal ratio of 70% or more and less than 90%) | 4 (Herbicidal ratio of 70% or more and less than 90%) | 1 (Herbicidal ratio of 5% or more and less than 20%) | 5 (Herbicidal ratio of 90% or more (almost completely withered)) | 4 (Herbicidal ratio of 70% or more and less than 90%) | 4 (Herbicidal ratio of 70% or more and less than 90%) | 3 (Herbicidal ratio of 40% or more and less than 70%) | 1 (Herbicidal ratio of 5% or more and less than 20%) | 4 (Herbicidal ratio of 70% or more and less than 90%) | 5 (Herbicidal ratio of 90% or more (almost completely withered)) | 5 (Herbicidal ratio of 90% or more (almost completely withered)) | 5 (Herbicidal ratio of 90% or more (almost completely withered)) | 4 (Herbicidal ratio of 70% or more and less than 90%) | 0 (Herbicidal ratio of 5% or less (almost no effect)) | 0 (Herbicidal ratio of 5% or less (almost no effect)) | 4 (Herbicidal ratio of 70% or more and less than 90%)
2 | CN(c1nnc2c(C(=O)Nc3nnnn3C)ccc(C(F)(F)F)n12)C1CCCCC1 [2-083] | 0 (Herbicidal ratio of 5% or less (almost no effect)) | 5 (Herbicidal ratio of 90% or more (almost completely withered)) | 1 (Herbicidal ratio of 5% or more and less than 20%) | 5 (Herbicidal ratio of 90% or more (almost completely withered)) | 1 (Herbicidal ratio of 5% or more and less than 20%) | 2 (Herbicidal ratio of 20% or more and less than 40%) | 5 (Herbicidal ratio of 90% or more (almost completely withered)) | 5 (Herbicidal ratio of 90% or more (almost completely withered)) | 5 (Herbicidal ratio of 90% or more (almost completely withered)) | 3 (Herbicidal ratio of 40% or more and less than 70%) | 1 (Herbicidal ratio of 5% or more and less than 20%) | 4 (Herbicidal ratio of 70% or more and less than 90%) | 4 (Herbicidal ratio of 70% or more and less than 90%) | 4 (Herbicidal ratio of 70% or more and less than 90%) | 5 (Herbicidal ratio of 90% or more (almost completely withered)) | 1 (Herbicidal ratio of 5% or more and less than 20%) | 0 (Herbicidal ratio of 5% or less (almost no effect)) | 0 (Herbicidal ratio of 5% or less (almost no effect)) | 4 (Herbicidal ratio of 70% or more and less than 90%)
